In general, EC50 refers to the midpoint of the concentration-response curve. A high value points to lower potency in that assay.

Values after ≈ are worked out from the molar mass of the structure shown.

The target in experiment [1] is T1, E. coli K12 PBP3 (Escherichia coli, UniProt P0AD68).
T1 construct: made in house
Description: biochemical. The format is binding. The gist of the method: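 Fluorescence polarization (ex 490/em 520 nm) competition of inhibitors against Bocillin-FL at 0.1 μM, read up to 60 min. Final PBP levels: E. coli PBP3 1.5 μM; A. baumannii PBP2 2.5 μM, PBP3 0.2 μM in Tris pH 8.0/NaCl/glycerol/Tween 20; N. gonorrhoeae PBP2 […] in Hepes pH 8.0/NaCl/glycerol. EC50 = concentration halving PBP-bound Bocillin-FL.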

Experiment [2] concerns the target T2, P. aeruginosa PBP3 (Pseudomonas aeruginosa, UniProt G3XD46).
T2 construct: made in house
Description: Bocillin-FL fluorescence polarization competition binding assay, P. aeruginosa PBP3. Particulars: fluorescence polarization competition binding assay using Bocillin-FL. The gist of the method:
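Binding of boronic acid inhibitors to purified Pseudomonas aeruginosa (PA01) PBP3 was measured by fluorescence polarization competition with Bocillin-FL, a fluorescent penicillin V. Reactions of 80 μl contained 0.75 μM PBP3 and 0.1 μM Bocillin-FL in 50 mM Hepes (pH 8.0), 300 mM NaCl and 5% (v/v) glycerol, in black 384-well plates. FP (Excitation 490 nm, Emission 520 nm) was read for up to 60 minutes. EC50 is the concentration that halves PBP-bound Bocillin-FL.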
(In general: Polarisation of emitted light reports the rotation of a fluorescent probe.)

In experiment [3] the test system is E. coli AG100A. Description: Broth microdilution MIC in CAMHB. Type of experiment: cell-based. Particulars: Escherichia coli, read-out: Minimum Inhibitory Concentration, E. coli AG100A. The method, boiled down:
(§1)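 Colonies from cation-adjusted Mueller Hinton agar are grown in broth (3-5 h, 37° C), adjusted by OD600, and added at 2-8×10^5 CFU/mL to 2-fold compound dilutions. After 16-20 h at 37° C, the lowest concentration without growth is taken as MIC.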

Experiment [4] has as its system E. coli AG100. Description: Broth microdilution MIC in CAMHB. The format is cell-based. Particulars: Escherichia coli; E. coli AG100 (wild-type parent); MHB; read-out: Minimum Inhibitory Concentration, E. coli AG100. The method, boiled down:
as §1

Experiment [5] deals with E. coli ATCC 25922. Description: Broth microdilution MIC in CAMHB. Type of experiment: cell-based. Particulars: Escherichia coli, ATCC25922; E. coli ATCC 25922; MHB; read-out: Minimum Inhibitory Concentration, E. coli 25922. The method, boiled down: as §1
In general terms: Dilution methods test growth across graded concentrations, often in twofold steps.

In experiment [6] the test system is E. coli D22. Description: Broth microdilution MIC in CAMHB. The format is cell-based. Particulars: Escherichia coli; E. coli D22 (hyper-permeable); MHB; read-out: Minimum Inhibitory Concentration, E. coli D22. The method, boiled down:
as §1

In experiment [7] the test system is K. pneumoniae 848844 producing SHV-11 and KPC-2. Description: Broth microdilution MIC in CAMHB. The format is cell-based. As to conditions: Klebsiella pneumoniae, read-out: Minimum Inhibitory Concentration, K. pneumoniae 848844. The gist of the method:
as §1

In experiment [8] the test system is K. pneumoniae SI-117 producing VIM-1. Description: Broth microdilution MIC in CAMHB. Particulars: Klebsiella pneumoniae, read-out: Minimum Inhibitory Concentration, K. pneumoniae SI-117. Type of experiment: cell-based. The gist of the method: as §1
In experiment [9] the test system is P. aeruginosa ATCC 27853. As to the kind of experiment: Broth microdilution MIC in CAMHB. Type of experiment: cell-based. As to conditions: Pseudomonas aeruginosa, ATCC27853; MHB; read-out: Minimum Inhibitory Concentration, P. aeruginosa ATCC 27853. The method, boiled down:
as §1

T2 sequence (G3XD46 whole entry): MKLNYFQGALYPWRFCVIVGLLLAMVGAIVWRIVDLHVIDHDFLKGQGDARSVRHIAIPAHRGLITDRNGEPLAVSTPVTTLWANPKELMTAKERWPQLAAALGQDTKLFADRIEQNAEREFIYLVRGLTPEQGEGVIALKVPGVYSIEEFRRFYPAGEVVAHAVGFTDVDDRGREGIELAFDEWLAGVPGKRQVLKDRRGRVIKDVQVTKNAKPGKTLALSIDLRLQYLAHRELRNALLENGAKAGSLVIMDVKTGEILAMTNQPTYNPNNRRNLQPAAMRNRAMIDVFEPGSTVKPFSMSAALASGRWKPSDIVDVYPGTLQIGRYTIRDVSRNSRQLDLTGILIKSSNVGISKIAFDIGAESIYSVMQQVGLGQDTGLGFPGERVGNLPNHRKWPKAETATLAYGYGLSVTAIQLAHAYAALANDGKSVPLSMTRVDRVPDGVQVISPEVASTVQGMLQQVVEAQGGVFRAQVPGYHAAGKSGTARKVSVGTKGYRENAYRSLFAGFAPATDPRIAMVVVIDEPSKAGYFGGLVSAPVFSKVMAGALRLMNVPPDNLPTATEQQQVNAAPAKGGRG
T1 sequence (P0AD68 1-577): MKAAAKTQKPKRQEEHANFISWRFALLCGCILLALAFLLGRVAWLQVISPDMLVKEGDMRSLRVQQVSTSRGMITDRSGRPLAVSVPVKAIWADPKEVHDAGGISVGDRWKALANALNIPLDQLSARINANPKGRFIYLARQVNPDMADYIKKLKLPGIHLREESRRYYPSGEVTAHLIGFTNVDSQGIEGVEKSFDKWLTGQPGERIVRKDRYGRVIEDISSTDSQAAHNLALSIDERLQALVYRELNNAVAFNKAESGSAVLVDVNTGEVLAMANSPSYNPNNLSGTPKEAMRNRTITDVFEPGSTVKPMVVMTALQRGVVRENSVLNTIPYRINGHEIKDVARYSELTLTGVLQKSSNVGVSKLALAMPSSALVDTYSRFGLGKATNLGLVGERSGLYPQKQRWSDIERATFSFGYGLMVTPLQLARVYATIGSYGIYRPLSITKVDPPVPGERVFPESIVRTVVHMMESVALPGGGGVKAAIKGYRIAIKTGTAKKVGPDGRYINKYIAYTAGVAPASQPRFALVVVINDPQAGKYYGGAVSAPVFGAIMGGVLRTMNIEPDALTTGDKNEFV

With `CCN1CCN(C(=O)NC(C(=O)N[C@H]2Cc3cccc(C(=O)O)c3OB2O)c2cc(C#N)c(O)cc2F)C(=O)C1=O` (stereo partly drawn) [Example 209, (3R)-3-(2-(5-cyano-2-fluoro-4-hydroxyphenyl)-2-(4-ethyl-2,3-dioxopiperazine-1-carboxamido)acetamido)-2-hydroxy-3,4-dihydro-2H-benzo[e][1,2]oxaborinine-8-carboxylic acid], the 50% effective concentration (EC50) in [1] was under 30 µM. Further, in experiment [2], the “P. aeruginosa PBP3 Potency” value was “D (D represents a potency <10 μM)”. Also, the MIC in experiment [3] was 2 to 4 µg/mL (≈ 3.53 to 7.05 µM); in experiment [4], 32 to 64 µg/mL (≈ 56.4 to 113 µM); in experiment [5], 32 to 64 µg/mL (≈ 56.4 to 113 µM); in experiment [6], 2 to 4 µg/mL (≈ 3.53 to 7.05 µM); in [7], over 128 µg/mL; in experiment [8], over 128 µg/mL. Further, in experiment [9], the MIC was over 128 µg/mL.
In experiment [1], `O=C(O)c1cccc2c1OB(O)[C@@H](NC(=O)C(NC(=O)N1CCN(C3CNC3)C(=O)C1=O)c1c(F)cc(O)cc1F)C2` (stereo partly drawn) [Example 212, (3R)-3-(2-(4-(azetidin-3-yl)-2,3-dioxopiperazine-1-carboxamido)-2-(2,6-difluoro-4-hydroxyphenyl)acetamido)-2-hydroxy-3,4-dihydro-2H-benzo[e][1,2]oxaborinine-8-carboxylic acid] had a 50% effective concentration (EC50) of under 30 µM. Besides, in [2], the “P. aeruginosa PBP3 Potency” value was “D (D represents a potency <10 μM)”. The MIC in experiment [3] was 2 to 4 µg/mL (≈ 3.41 to 6.81 µM); in [4], 8 to 16 µg/mL (≈ 13.6 to 27.2 µM); in experiment [5] it was 8 to 16 µg/mL (≈ 13.6 to 27.2 µM); in experiment [6] it was 2 to 4 µg/mL (≈ 3.41 to 6.81 µM); in [7] it was 32 to 64 µg/mL (≈ 54.5 to 109 µM); in experiment [8], 32 to 64 µg/mL (≈ 54.5 to 109 µM). Besides, the MIC in experiment [9] is over 128 µg/mL.
As for `CCN1CCN(C(=O)NC(C(=O)N[C@H]2Cc3cccc(C(=O)O)c3OB2O)c2c(F)cc(NC(=O)NC)cc2F)C(=O)C1=O` (stereo partly drawn) [Example 213, (3R)-3-(2-(2,6-difluoro-4-(3-methylureido)phenyl)-2-(4-ethyl-2,3-dioxopiperazine-1-carboxamido)acetamido)-2-hydroxy-3,4-dihydro-2H-benzo[e][1,2]oxaborinine-8-carboxylic acid], the concentration giving a half-maximal response (EC50) in experiment [1] is under 30 µM. Also, the “P. aeruginosa PBP3 Potency” value in experiment [2] is “D (D represents a potency <10 μM)”. Also, the MIC was 2 to 4 µg/mL (≈ 3.24 to 6.49 µM) in experiment [3]; 32 to 64 µg/mL (≈ 51.9 to 104 µM) in [4]; 32 to 64 µg/mL (≈ 51.9 to 104 µM) in experiment [5]; 2 to 4 µg/mL (≈ 3.24 to 6.49 µM) in experiment [6]; over 128 µg/mL in experiment [7]; over 128 µg/mL in [8]. For the same compound, the MIC in experiment [9] was over 128 µg/mL.

The record behind these values is US20230114728A1 (Venatorx Pharmaceuticals, Inc., priority 2019, published 2023).
